Results reported in ChEMBL document CHEMBL1127403, “L-N6-(1-iminoethyl)lysine: a selective inhibitor of inducible nitric oxide synthase” (J Med Chem, 1994).

Key:
[1] = Selectivity is the ratio of IC50 of mouse inducible NOS and Rat brain constitutive NOS
[2] = target: Nitric oxide synthase 1 (Rattus norvegicus, UniProt P29476); experiment: Tested for inhibition of rat brain […] nitric oxide synthase
[3] = target: T1, Nitric oxide synthase, inducible (Mus musculus, UniProt P29477); experiment: Tested for inhibition of mouse inducible nitric oxide synthase
T1 sequence (P29477 whole entry): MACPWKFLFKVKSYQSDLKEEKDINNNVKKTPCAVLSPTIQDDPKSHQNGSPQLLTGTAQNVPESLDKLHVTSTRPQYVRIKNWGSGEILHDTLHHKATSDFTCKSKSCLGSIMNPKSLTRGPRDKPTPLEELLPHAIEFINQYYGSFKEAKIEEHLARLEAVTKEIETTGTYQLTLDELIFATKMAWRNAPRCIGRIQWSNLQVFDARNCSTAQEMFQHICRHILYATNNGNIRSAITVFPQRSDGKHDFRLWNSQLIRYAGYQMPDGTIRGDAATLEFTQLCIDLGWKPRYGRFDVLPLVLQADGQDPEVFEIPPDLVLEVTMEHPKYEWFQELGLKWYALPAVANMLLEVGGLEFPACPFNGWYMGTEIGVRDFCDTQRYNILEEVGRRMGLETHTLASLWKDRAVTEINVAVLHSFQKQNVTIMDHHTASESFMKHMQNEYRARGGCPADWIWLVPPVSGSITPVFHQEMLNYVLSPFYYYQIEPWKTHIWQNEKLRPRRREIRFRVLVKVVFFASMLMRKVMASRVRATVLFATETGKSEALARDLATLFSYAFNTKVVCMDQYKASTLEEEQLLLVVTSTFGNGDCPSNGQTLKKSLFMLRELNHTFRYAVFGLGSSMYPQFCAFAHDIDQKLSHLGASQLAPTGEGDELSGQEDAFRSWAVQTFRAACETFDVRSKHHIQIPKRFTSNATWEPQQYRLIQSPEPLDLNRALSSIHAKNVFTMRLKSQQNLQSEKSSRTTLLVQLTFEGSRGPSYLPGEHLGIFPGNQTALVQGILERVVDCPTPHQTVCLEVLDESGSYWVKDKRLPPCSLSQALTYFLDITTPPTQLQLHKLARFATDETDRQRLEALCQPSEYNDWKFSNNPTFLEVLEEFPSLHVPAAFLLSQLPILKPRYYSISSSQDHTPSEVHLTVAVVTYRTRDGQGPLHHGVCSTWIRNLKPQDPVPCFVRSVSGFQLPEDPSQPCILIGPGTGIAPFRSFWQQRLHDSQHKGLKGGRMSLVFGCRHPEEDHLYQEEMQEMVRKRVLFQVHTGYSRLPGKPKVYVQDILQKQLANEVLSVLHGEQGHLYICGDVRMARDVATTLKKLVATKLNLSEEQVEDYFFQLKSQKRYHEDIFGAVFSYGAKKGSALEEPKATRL

Chain of Nitric oxide synthase 1 (P29476 whole entry): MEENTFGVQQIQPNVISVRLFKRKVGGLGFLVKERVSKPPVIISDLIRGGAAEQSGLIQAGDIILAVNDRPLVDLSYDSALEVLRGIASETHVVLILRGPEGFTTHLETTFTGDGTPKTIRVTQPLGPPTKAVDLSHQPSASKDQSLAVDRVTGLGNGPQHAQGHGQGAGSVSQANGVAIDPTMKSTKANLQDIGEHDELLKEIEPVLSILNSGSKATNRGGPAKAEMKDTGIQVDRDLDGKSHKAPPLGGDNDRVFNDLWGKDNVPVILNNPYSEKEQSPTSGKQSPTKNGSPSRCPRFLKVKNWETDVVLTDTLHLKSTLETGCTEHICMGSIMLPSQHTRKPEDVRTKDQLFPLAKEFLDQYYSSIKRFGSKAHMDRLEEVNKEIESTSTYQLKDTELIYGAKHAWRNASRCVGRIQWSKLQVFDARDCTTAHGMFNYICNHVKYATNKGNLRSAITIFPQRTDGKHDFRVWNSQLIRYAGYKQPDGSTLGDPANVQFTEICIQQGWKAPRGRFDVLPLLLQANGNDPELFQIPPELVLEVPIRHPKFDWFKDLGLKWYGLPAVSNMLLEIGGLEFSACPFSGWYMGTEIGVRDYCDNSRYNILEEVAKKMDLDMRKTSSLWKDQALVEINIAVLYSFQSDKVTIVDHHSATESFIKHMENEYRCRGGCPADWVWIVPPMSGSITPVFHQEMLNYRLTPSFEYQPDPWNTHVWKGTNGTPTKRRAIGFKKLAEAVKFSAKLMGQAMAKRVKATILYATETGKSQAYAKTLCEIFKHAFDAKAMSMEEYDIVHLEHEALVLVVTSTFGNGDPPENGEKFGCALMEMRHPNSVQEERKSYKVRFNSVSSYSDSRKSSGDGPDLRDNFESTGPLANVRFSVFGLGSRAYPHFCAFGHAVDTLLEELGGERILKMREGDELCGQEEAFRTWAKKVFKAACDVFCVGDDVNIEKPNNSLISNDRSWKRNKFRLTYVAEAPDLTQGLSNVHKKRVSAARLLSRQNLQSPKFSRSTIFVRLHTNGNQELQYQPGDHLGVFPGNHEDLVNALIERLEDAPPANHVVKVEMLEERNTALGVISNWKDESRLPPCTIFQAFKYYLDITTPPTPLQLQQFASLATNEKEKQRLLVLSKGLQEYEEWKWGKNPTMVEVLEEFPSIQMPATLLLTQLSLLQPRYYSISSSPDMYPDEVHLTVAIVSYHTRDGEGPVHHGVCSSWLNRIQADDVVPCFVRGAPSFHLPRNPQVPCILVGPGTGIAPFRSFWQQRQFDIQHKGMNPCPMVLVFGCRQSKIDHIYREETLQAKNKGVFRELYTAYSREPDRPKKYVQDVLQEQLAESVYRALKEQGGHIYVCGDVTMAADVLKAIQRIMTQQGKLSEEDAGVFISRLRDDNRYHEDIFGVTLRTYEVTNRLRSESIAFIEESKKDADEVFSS

Row | Structure (SMILES) | Selectivity [1] | IC50 [2] [µM] | IC50 [3] [µM]
1 | CC(=N)NCCCC[C@@H](N)C(=O)O | 8 | 2800 | 336
2 | CC(=N)NCCCCCC(N)C(=O)O (racemic) | 11 | 808 | 73
3 | N=C(NCCC[C@H](N)C(=O)O)N[N+](=O)[O-] [NITROARGININE] |  |  | 0.5

Further compounds by falling IC50 [3], results first:

Row | Selectivity [1] | IC50 [2] [µM] | IC50 [3] [µM] | Structure (SMILES)
4 |  |  | 3.9 | CC(=N)NCCC[C@H](N)C(=O)O [L-NIO]
5 | 28 | 92 | 3.3 | CC(=N)NCCCC[C@H](N)C(=O)O [L-NIL]
